We go through 30 compounds from US20100003246A1, “Novel heterocyclic compounds and uses therof” (priority 2008, published 2010).

In this test the target is T1, b-Raf(V600E) (Homo sapiens, UniProt P15056, V600E).
T1 construct: made in house
Kind of test: Raf/Mek Amplified Luminescence Proximity Homogeneous Assay (Alpha Screen), b-Raf(V600E). Type of test: biochemical. The settings on record: mutant b-Raf(V600E), read-out: mut-b-RAF (IC50 in uM). The protocol: Assay buffer: 50 mM Tris, pH 7.5, 15 mM MgCl2, 0.01% BSA, 1 mM DTT Stop buffer: 60 mM EDTA, 0.01% Tween20 Bead buffer: 50 mM Tris, pH 7.5, 0.01% Tween20
b-Raf(V600E), active: Recombinant in-house material biotinylated Mek, kinase dead: Recombinant in-house material Alpha Screen detection kit PerkinElmer, #6760617R Anti phospho-MEK½ Cell signaling #9121 384 well assay plates: White Greiner plates, #781207
b-Raf(V600E) approximately 4 pM c-Raf approximately 4 nM biotinylated Mek, Kinase dead approximately 10 nM
Pre-incubation time with compounds 60 min at room temperature Reaction time 1 or 3 hours at room temperature
Raf and biotinylated Mek, kinase dead, were combined at 2× final concentrations in assay buffer (50 mM Tris, pH 7.5, 15 mM MgCl2, 0.01% BSA and 1 mM DTT) and dispensed 10 μl per well in assay plates (Greiner white 384 well assay plates #781207) containing 0.5 μl of 40× of a raf kinase inhibitor test compound diluted in 100% DMSO. The plate was incubated for 60 min at room temperature.
The Raf kinase activity reaction was started by the addition of 10 μl per well of 2×ATP diluted in assay buffer. After 3 hours (bRaf(V600E)) or 1 hour (c-Raf), the reactions were stopped with the addition of 10 μl of stop reagent (60 mM EDTA). Phosphorylated product was measured using a rabbit anti-p-MEK (Cell Signaling, #9121) antibody and the Alpha Screen IgG (Protein A) detection Kit (PerkinElmer #6760617R), by the addition of 30 μL to the well of a mixture of the antibody (1:2000 dilution) and detection beads (1:2000 dilution of both beads) in bead buffer (50 mM Tris, pH 7.5, 0.01% Tween20). The additions were carried out under dark conditions to protect the detection beads from light. A lid was placed on top of the plate and incubated for 1 hour at room temperature, then the luminescence was read on a PerkinElmer Envision instrument. The concentration of each compound for 50% inhibition (IC50) was calculated by non-linear regression using XL Fit data analysis software.
The Raf/Mek Amplified Luminescence Proximity Homogeneous Assay described was used to generate the luminescence and mutant b-Raf(V600E) IC50 data for selected Raf Kinase Inhibitors shown in Table 1 above.

T1 sequence (P15056 whole entry V600E): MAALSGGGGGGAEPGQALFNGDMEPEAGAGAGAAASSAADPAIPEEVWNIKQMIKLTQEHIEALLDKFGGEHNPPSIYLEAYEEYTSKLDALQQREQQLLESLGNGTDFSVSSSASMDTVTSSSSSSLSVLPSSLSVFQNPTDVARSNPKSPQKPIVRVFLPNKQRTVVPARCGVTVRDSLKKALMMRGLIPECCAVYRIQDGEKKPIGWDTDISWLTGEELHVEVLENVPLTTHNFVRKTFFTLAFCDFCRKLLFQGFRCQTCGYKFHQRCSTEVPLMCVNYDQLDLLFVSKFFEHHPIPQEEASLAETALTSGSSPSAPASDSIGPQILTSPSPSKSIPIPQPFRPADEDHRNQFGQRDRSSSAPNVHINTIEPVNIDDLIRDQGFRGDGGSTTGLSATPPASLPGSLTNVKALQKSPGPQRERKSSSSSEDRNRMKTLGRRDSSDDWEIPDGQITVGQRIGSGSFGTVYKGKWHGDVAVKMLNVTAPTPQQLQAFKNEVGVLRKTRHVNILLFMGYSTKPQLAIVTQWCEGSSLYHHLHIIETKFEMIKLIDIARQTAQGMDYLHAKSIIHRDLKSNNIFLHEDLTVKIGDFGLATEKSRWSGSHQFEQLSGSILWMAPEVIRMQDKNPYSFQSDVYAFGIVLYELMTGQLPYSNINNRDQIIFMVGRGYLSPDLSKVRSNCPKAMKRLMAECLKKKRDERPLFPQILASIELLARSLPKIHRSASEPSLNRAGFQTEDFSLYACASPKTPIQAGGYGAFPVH

One may read the IC50 as the midpoint of a concentration-inhibition curve. Regarding `Nc1n[nH]c2cc(-c3[nH]c(-c4ccccc4)nc3-c3ccncc3)cc(F)c12` [Compound 30, 4-fluoro-6-(2-phenyl-4-(pyridin-4-yl)-1H-imidazol-5-yl)-1H-indazol-3-amine], the 50% inhibitory concentration (IC50) worked out at 0.528 µM.

Consider `COc1cc(-c2[nH]c(-c3ccc(Cl)cc3F)nc2-c2ccncc2)cnc1N` [Compound 146, 5-(2-(4-chloro-2-fluorophenyl)-4-(pyridin-4-yl)-1H-imidazol-5-yl)-3-methoxypyridin-2-amine], for which the IC50 is 0.0023 µM.

For the compound `COc1cc(-c2[nH]c(-c3ccc(F)cc3)nc2-c2cn[nH]c2)cnc1N` [Compound 96, 5-(2-(4-fluorophenyl)-4-(1H-pyrazol-4-yl)-1H-imidazol-5-yl)-3-methoxypyridin-2-amine], the 50% inhibitory concentration (IC50) came out at 0.0321 µM.

Turning to `COc1cc(-c2nc(C3=CCCCC3)[nH]c2-c2ccncc2)cnc1N` [Compound 113, 5-(2-cyclohexenyl-5-(pyridin-4-yl)-1H-imidazol-4-yl)-3-methoxypyridin-2-amine], the IC50 is 0.0026 µM.

Turning to `COc1cc(-c2nc(C(C)(C)C)[nH]c2-c2ccnc(NC[C@H](C)O)n2)cnc1N` [Example 6], the IC50 came out at 0.0003 µM.

In the case of `COc1cc(-c2nc(-c3ccc(F)cc3)[nH]c2-c2ccnc(NCC(C)C)n2)cnc1N` [Compound 159, 4-(4-(6-amino-5-methoxypyridin-3-yl)-2-(4-fluorophenyl)-1H-imidazol-5-yl)-N-isobutylpyrimidin-2-amine], the half-maximal inhibitory concentration (IC50) was found to be 0.0015 µM.

With `COc1cc(-c2nc(C3=CCCC3)[nH]c2-c2ccncc2)cnc1N` [Compound 127, 5-(2-cyclopentenyl-5-(pyridin-4-yl)-1H-imidazol-4-yl)-3-methoxypyridin-2-amine], the IC50 turned out to be 0.0018 µM.

With `COc1cc(-c2nc(-c3ccc(F)cc3)oc2-c2ccnc(NCC(C)C)n2)cnc1N` [Compound 220, 4-(4-(6-amino-5-methoxypyridin-3-yl)-2-(4-fluorophenyl)oxazol-5-yl)-N-isobutylpyrimidin-2-amine], the IC50 turned out to be 0.002 µM.

Turning to `COc1cc(-c2nc(C(C)(C)C)[nH]c2-c2ccnc(N[C@@H]3CCN(C(C)=O)C3)n2)cnc1N` [Compound 185, (R)-1-(3-(4-(4-(6-amino-5-methoxypyridin-3-yl)-2-tert-butyl-1H-imidazol-5-yl)pyrimidin-2-ylamino)pyrrolidin-1-yl)ethanone], the IC50 was found to be 0.0032 µM.

With `CCCNc1nccc(-c2[nH]c(C(C)(C)C)nc2-c2cnc(N)c(OC)c2)n1` [Compound 212, 4-(4-(6-amino-5-methoxypyridin-3-yl)-2-tert-butyl-1H-imidazol-5-yl)-N-propylpyrimidin-2-amine], the IC50 came out at 0.0001 µM.

In the case of `c1ccc(-c2nc(-c3ccncc3)c(-c3cnc4[nH]ncc4c3)[nH]2)cc1` [Compound 49, 5-(2-phenyl-4-(pyridin-4-yl)-1H-imidazol-5-yl)-1H-pyrazolo[3,4-b]pyridine], the IC50 was found to be 0.0222 µM.

`COc1nc(-c2nc(-c3ccc(C(F)(F)F)cc3)oc2-c2ccnc(NCC(C)C)n2)cnc1N` [Compound 223, 4-(4-(5-amino-6-methoxypyrazin-2-yl)-2-(4-(trifluoromethyl)phenyl)oxazol-5-yl)-N-isobutylpyrimidin-2-amine]: the IC50 stood at 0.011 µM.

As for `COc1cc(-c2nc(C(C)(C)C)[nH]c2-c2ccnc(NCC(C)C)n2)cnc1N` [Compound 209, 4-(4-(6-amino-5-methoxypyridin-3-yl)-2-tert-butyl-1H-imidazol-5-yl)-N-isobutylpyrimidin-2-amine], the IC50 was found to be 0.0001 µM.

`COCC(=O)N[C@@H](C)CNc1nccc(-c2[nH]c(C3CC3)nc2-c2nc(OC)c(N)nc2C)n1` [Compound 255, (S)-N-(1-(4-(4-(5-amino-6-methoxy-3-methylpyrazin-2-yl)-2-cyclopropyl-1H-imidazol-5-yl)pyrimidin-2-ylamino)propan-2-yl)-2-methoxyacetamide]: the IC50 was 0.0039 µM.

As to `Nc1ncc(-c2[nH]c(-c3ccccc3)nc2-c2ccncc2)cc1Cl` [Compound 46, 3-chloro-5-(2-phenyl-4-(pyridin-4-yl)-1H-imidazol-5-yl)pyridin-2-amine], the half-inhibitory concentration (IC50) amounted to 0.0287 µM.

`COc1cc(-c2nc(C3=CCOCC3)[nH]c2-c2ccncc2)cnc1N` [Compound 154, 5-(2-(3,6-dihydro-2H-pyran-4-yl)-5-(pyridin-4-yl)-1H-imidazol-4-yl)-3-methoxypyridin-2-amine]: the IC50 was determined as 0.0033 µM.

For the compound `COc1cc(-c2nc(C(C)(C)C)[nH]c2-c2ccnc(NCc3ccc(C(F)(F)F)cc3)n2)cnc1N` [Compound 215, 4-(4-(6-amino-5-methoxypyridin-3-yl)-2-tert-butyl-1H-imidazol-5-yl)-N-(4-(trifluoromethyl)benzyl)-pyrimidin-2-amine], the 50% inhibitory concentration (IC50) was found to be 0.0005 µM.

For the compound `COCC(=O)NCCNc1nccc(-c2nc(-c3ccc(F)cc3)[nH]c2-c2cnc3[nH]cc(Br)c3c2)n1` [Compound 166, N-(2-(4-(5-(3-bromo-1H-pyrrolo[2,3-b]pyridin-5-yl)-2-(4-fluorophenyl)-1H-imidazol-4-yl)pyrimidin-2-ylamino)ethyl)-2-methoxyacetamide], the half-maximal inhibitory concentration (IC50) is 0.0001 µM.

Consider `COc1cc(-c2[nH]c(-c3ccccc3Cl)nc2-c2ccncc2)cnc1N` [Compound 135, 5-(2-(2-chlorophenyl)-4-(pyridin-4-yl)-1H-imidazol-5-yl)-3-methoxypyridin-2-amine], for which the half-inhibitory concentration (IC50) is 0.0004 µM.

As for `COc1cc(-c2nc(C(C)(C)C)oc2-c2ccnc(NCC(C)C)c2)cnc1N` [Compound 246, 4-(4-(6-amino-5-methoxypyridin-3-yl)-2-tert-butyloxazol-5-yl)-N-isobutylpyridin-2-amine], the concentration for half-maximal inhibition (IC50) came out at 0.0001 µM.

`COc1nc(-c2nc(C(C)(C)C)[nH]c2-c2ccnc(NC[C@H](C)NC(=O)OCC(C)(C)C)n2)c(C)nc1N` [Compound 259, (S)-neopentyl 1-(4-(4-(5-amino-6-methoxy-3-methylpyrazin-2-yl)-2-tert-butyl-1H-imidazol-5-yl)pyrimidin-2-ylamino)propan-2-ylcarbamate]: the half-maximal inhibitory concentration (IC50) was 0.0015 µM.

As for `COc1cc(-c2[nH]c(-c3ccc(F)cc3)nc2-c2ccnc(Nc3ccc(N4C[C@@H](C)O[C@@H](C)C4)nc3)n2)cnc1N` [Compound 187, 4-(5-(6-amino-5-methoxypyridin-3-yl)-2-(4-fluorophenyl)-1H-imidazol-4-yl)-N-(6-((2S,6R)-2,6-dimethylmorpholino)-pyridin-3-yl)pyrimidin-2-amine], the IC50 was 0.0005 µM.

As for `Nc1cc(-c2[nH]c(-c3ccccc3)nc2-c2ccncc2)ccn1` [Compound 27, 4-(2-phenyl-4-(pyridin-4-yl)-1H-imidazol-5-yl)pyridin-2-amine], the 50% inhibitory concentration (IC50) was 0.417 µM.

Turning to `COc1cc(-c2[nH]c(-c3ccc(F)cc3)nc2-c2ccnc(NC3CCN(S(=O)(=O)C4CC4)CC3)n2)cnc1N` [Compound 95, 4-(5-(6-amino-5-methoxypyridin-3-yl)-2-(4-fluorophenyl)-1H-imidazol-4-yl)-N-(1-(cyclopropylsulfonyl)piper-idin-4-yl)pyrimidin-2-amine], the IC50 is 0.0025 µM.

On to `Fc1ccc(-c2nc(-c3ccncc3)c(-c3ccc4ncnn4c3)[nH]2)cc1` [Compound 130, 6-(2-(4-fluorophenyl)-4-(pyridin-4-yl)-1H-imidazol-5-yl)-[1,2,4]triazolo[1,5-a]pyridine], for which the IC50 was 0.416 µM.

With `COc1cc(-c2nc(-c3ccc(C(F)(F)F)cc3)oc2-c2ccnc(NCC(C)C)c2)cnc1N` [Compound 232, 4-(4-(6-amino-5-methoxypyridin-3-yl)-2-(4-(trifluoromethyl)phenyl)-oxazol-5-yl)-N-isobutylpyridin-2-amine], the IC50 worked out at 0.0084 µM.

On to `FC(F)(F)c1ccc(-c2nc(-c3ccncc3)c(-c3ccncc3)[nH]2)cc1` [Compound 84, 4,4′-(2-(4-(trifluoromethyl)phenyl)-1H-imidazole-4,5-diyl)dipyridine], for which the concentration for half-maximal inhibition (IC50) came to 0.229 µM.

Consider `Nc1ncc(-c2[nH]c(-c3ccccc3)nc2-c2ccncc2)cn1` [Compound 25, 5-(2-phenyl-4-(pyridin-4-yl)-1H-imidazol-5-yl)pyrimidin-2-amine], for which the IC50 is 0.489 µM.

Consider `COc1cc(-c2[nH]c(-c3ccc(F)cc3)nc2-c2ccnc(N[C@@H]3CCN(S(C)(=O)=O)C3)n2)cnc1N` [Compound 199, (R)-4-(5-(6-amino-5-methoxypyridin-3-yl)-2-(4-fluorophenyl)-1H-imidazol-4-yl)-N-(1-(methylsulfonyl)pyrrolidin-3-yl)pyrimidin-2-amine], for which the IC50 amounted to 0.015 µM.

Take `COc1cc(-c2[nH]c(-c3ccc(C#N)cc3)nc2-c2ccncc2)cnc1N` [Compound 104, 4-(5-(6-amino-5-methoxypyridin-3-yl)-4-(pyridin-4-yl)-1H-imidazol-2-yl)benzonitrile]: the IC50 was determined as 0.0014 µM.
